Measurements taken from ChEMBL document CHEMBL1146373, “Free-radical-scavenging effect of carbazole derivatives on AAPH-induced hemolysis of human erythrocytes” (2007).

Assays:
Type in all cases: functional
Erythrocyte [1] = test: Inhibition of AAPH-induced hemolysis in human erythrocytes assessed as hemolysis time at 10.8 uM
Erythrocyte [2] = test: Inhibition of AAPH-induced hemolysis in human erythrocytes assessed as hemolysis time at 13.9 uM
Erythrocyte [3] = test: Inhibition of AAPH-induced hemolysis in human erythrocytes assessed as hemolysis time at 12.4 uM
Erythrocyte [4] = test: Inhibition of AAPH-induced hemolysis in human erythrocytes assessed as hemolysis time at 9.27 uM
Erythrocyte [5] = test: Inhibition of AAPH-induced hemolysis in human erythrocytes assessed as hemolysis time at 15.5 uM
Erythrocyte [6] = test: Inhibition of AAPH-induced hemolysis in human erythrocytes assessed as hemolysis inhibition time at 15.5 uM
Erythrocyte [7] = test: Inhibition of AAPH-induced hemolysis in human erythrocytes assessed as hemolysis inhibition time at 9.27 uM
Erythrocyte [8] = test: Inhibition of AAPH-induced hemolysis in human erythrocytes assessed as hemolysis inhibition time at 10.8 uM
Erythrocyte [9] = test: Inhibition of AAPH-induced hemolysis in human erythrocytes assessed as hemolysis inhibition time at 12.4 uM
Erythrocyte [10] = test: Inhibition of AAPH-induced hemolysis in human erythrocytes assessed as hemolysis inhibition time at 13.9 uM
Erythrocyte [11] = test: Inhibition of AAPH-induced hemolysis in human erythrocytes assessed as hemolysis time at 50.8 uM
Erythrocyte [12] = test: Inhibition of AAPH-induced hemolysis in human erythrocytes assessed as hemolysis time at 20.3 uM
Erythrocyte [13] = test: Inhibition of AAPH-induced hemolysis in human erythrocytes assessed as hemolysis time at 30.5 uM
Erythrocyte [14] = test: Inhibition of AAPH-induced hemolysis in human erythrocytes assessed as hemolysis time at 37.3 uM
Erythrocyte [15] = test: Inhibition of AAPH-induced hemolysis in human erythrocytes assessed as hemolysis time at 61 uM
Erythrocyte [16] = test: Inhibition of AAPH-induced hemolysis in human erythrocytes assessed as hemolysis inhibition time at 20.3 uM
Erythrocyte [17] = test: Inhibition of AAPH-induced hemolysis in human erythrocytes assessed as hemolysis inhibition time at 30.5 uM
Erythrocyte [18] = test: Inhibition of AAPH-induced hemolysis in human erythrocytes assessed as hemolysis inhibition time at 37.3 uM
Erythrocyte [19] = test: Inhibition of AAPH-induced hemolysis in human erythrocytes assessed as hemolysis inhibition time at 50.8 uM
Erythrocyte [20] = test: Inhibition of AAPH-induced hemolysis in human erythrocytes assessed as hemolysis inhibition time at 61 uM
Erythrocyte [21] = test: Inhibition of AAPH-induced hemolysis in human erythrocytes assessed as hemolysis time at 3 uM
Erythrocyte [22] = test: Inhibition of AAPH-induced hemolysis in human erythrocytes assessed as hemolysis time at 6 uM
Erythrocyte [23] = test: Inhibition of AAPH-induced hemolysis in human erythrocytes assessed as hemolysis time at 9 uM
Erythrocyte [24] = test: Inhibition of AAPH-induced hemolysis in human erythrocytes assessed as hemolysis time at 12 uM
Erythrocyte [25] = test: Inhibition of AAPH-induced hemolysis in human erythrocytes assessed as hemolysis time at 15 uM
Erythrocyte [26] = test: Inhibition of AAPH-induced hemolysis in human erythrocytes assessed as hemolysis inhibition time at 3 uM
Erythrocyte [27] = test: Inhibition of AAPH-induced hemolysis in human erythrocytes assessed as hemolysis inhibition time at 6 uM
Erythrocyte [28] = test: Inhibition of AAPH-induced hemolysis in human erythrocytes assessed as hemolysis inhibition time at 9 uM
Erythrocyte [29] = test: Inhibition of AAPH-induced hemolysis in human erythrocytes assessed as hemolysis inhibition time at 12 uM
Erythrocyte [30] = test: Inhibition of AAPH-induced hemolysis in human erythrocytes assessed as hemolysis inhibition time at 15 uM
Erythrocyte [31] = test: Inhibition of AAPH-induced hemolysis in human erythrocytes assessed as hemolysis time at 6.17 uM
Erythrocyte [32] = test: Inhibition of AAPH-induced hemolysis in human erythrocytes assessed as hemolysis time at 9.26 uM
Erythrocyte [33] = test: Inhibition of AAPH-induced hemolysis in human erythrocytes assessed as hemolysis time at 12.3 uM
Erythrocyte [34] = test: Inhibition of AAPH-induced hemolysis in human erythrocytes assessed as hemolysis time at 15.4 uM
Erythrocyte [35] = test: Inhibition of AAPH-induced hemolysis in human erythrocytes assessed as hemolysis time at 20.6 uM
Erythrocyte [36] = test: Inhibition of AAPH-induced hemolysis in human erythrocytes assessed as hemolysis inhibition time at 6.17 uM
Erythrocyte [37] = test: Inhibition of AAPH-induced hemolysis in human erythrocytes assessed as hemolysis inhibition time at 9.26 uM
Erythrocyte [38] = test: Inhibition of AAPH-induced hemolysis in human erythrocytes assessed as hemolysis inhibition time at 12.3 uM
Erythrocyte [39] = test: Inhibition of AAPH-induced hemolysis in human erythrocytes assessed as hemolysis inhibition time at 15.4 uM
Erythrocyte [40] = test: Inhibition of AAPH-induced hemolysis in human erythrocytes assessed as hemolysis inhibition time at 20.6 uM
Erythrocyte [41] = test: Inhibition of AAPH-induced hemolysis in human erythrocytes assessed as hemolysis time at 8.26 uM
Erythrocyte [42] = test: Inhibition of AAPH-induced hemolysis in human erythrocytes assessed as hemolysis time at 16.5 uM
Erythrocyte [43] = test: Inhibition of AAPH-induced hemolysis in human erythrocytes assessed as hemolysis time at 20.7 uM
Erythrocyte [44] = test: Inhibition of AAPH-induced hemolysis in human erythrocytes assessed as hemolysis time at 24.8 uM
Erythrocyte [45] = test: Inhibition of AAPH-induced hemolysis in human erythrocytes assessed as hemolysis inhibition time at 8.26 uM
Erythrocyte [46] = test: Inhibition of AAPH-induced hemolysis in human erythrocytes assessed as hemolysis inhibition time at 16.5 uM
Erythrocyte [47] = test: Inhibition of AAPH-induced hemolysis in human erythrocytes assessed as hemolysis inhibition time at 20.7 uM
Erythrocyte [48] = test: Inhibition of AAPH-induced hemolysis in human erythrocytes assessed as hemolysis inhibition time at 24.8 uM

## c1ccc2c(c1)Nc1ccccc1O2 [PHENOXAZINE]
Erythrocyte [1]
  Activity: 379 min
Erythrocyte [2]
  Activity: 461 min
Erythrocyte [3]
  Activity: 425 min
Erythrocyte [4]
  Activity: 345 min
Erythrocyte [5]
  Activity: 509 min
Erythrocyte [6]
  Activity: 322 min
Erythrocyte [7]
  Activity: 158 min
Erythrocyte [8]
  Activity: 192 min
Erythrocyte [9]
  Activity: 238 min
Erythrocyte [10]
  Activity: 274 min

## c1ccc2c(c1)Nc1ccccc1S2 [PHENOTHIAZINE]
Erythrocyte [11]
  Activity: 408 min
Erythrocyte [12]
  Activity: 275 min
Erythrocyte [13]
  Activity: 330 min
Erythrocyte [14]
  Activity: 368 min
Erythrocyte [15]
  Activity: 451 min
Erythrocyte [16]
  Activity: 64 min
Erythrocyte [17]
  Activity: 119 min
Erythrocyte [18]
  Activity: 157 min
Erythrocyte [19]
  Activity: 197 min
Erythrocyte [20]
  Activity: 240 min

## c1ccc(Nc2ccccc2)cc1 [DIPHENYLAMINE]
Erythrocyte [21]
  Activity: 257 min
Erythrocyte [22]
  Activity: 346 min
Erythrocyte [23]
  Activity: 400 min
Erythrocyte [24]
  Activity: 458 min
Erythrocyte [25]
  Activity: 489 min
Erythrocyte [26]
  Activity: 24 min
Erythrocyte [27]
  Activity: 113 min
Erythrocyte [28]
  Activity: 167 min
Erythrocyte [29]
  Activity: 225 min
Erythrocyte [30]
  Activity: 256 min

## c1ccc2c(c1)[nH]c1ccccc12 [CARBAZOLE]
Erythrocyte [31]
  Activity: 265 min
Erythrocyte [32]
  Activity: 298 min
Erythrocyte [33]
  Activity: 327 min
Erythrocyte [34]
  Activity: 364 min
Erythrocyte [35]
  Activity: 406 min
Erythrocyte [36]
  Activity: 68 min
Erythrocyte [37]
  Activity: 101 min
Erythrocyte [38]
  Activity: 130 min
Erythrocyte [39]
  Activity: 167 min
Erythrocyte [40]
  Activity: 209 min

## C1=Cc2ccccc2Nc2ccccc21 [IMINOSTILBENE]
Erythrocyte [3]
  Activity: 297 min
Erythrocyte [41]
  Activity: 264 min
Erythrocyte [42]
  Activity: 333 min
Erythrocyte [43]
  Activity: 365 min
Erythrocyte [44]
  Activity: 381 min
Erythrocyte [9]
  Activity: 85 min
Erythrocyte [45]
  Activity: 52 min
Erythrocyte [46]
  Activity: 121 min
Erythrocyte [47]
  Activity: 153 min
Erythrocyte [48]
  Activity: 169 min
